*1 amine or outer side, *2 acyl side, *3 side chain or, on linkers, in order; H or OH if unused. Where a SMILES comes first, the peptide text is derived from it. Bridges are numbered along the chain shown (N, C = ends). [ ]: non-standard residue; d: D form. The star is where a group is joined. NH(CH2)5NHDOTA = O=C(O)CN1CCN(CC(=O)O)CCN(CC(=O)NCCCCCN*)CCN(CC(=O)O)CC1; DOTA(In) = O=C1CN2CCN3CCN(CC(=O)*)CCN(CC2)CC(=O)[O][In]([O]1)[O]C(=O)C3; X3 = O=C(O)CN1CCN(CC(=O)O)CCN(CC(=O)NCCCOCCOCCOCCCN*)CCN(CC(=O)O)CC1; NH(1-deoxy-D-glucityl) = OC[C@@H](O)[C@@H](O)[C@H](O)[C@@H](O)CN*; X8 = O=C(O)CN1CCN(CC(=O)O)CCN(CC(=O)N2CCN(*)CC2)CCN(CC(=O)O)CC1; Pro(trans-4-NH2) = O=C([C@@H]1C[C@@H](N[*:3])CN1[*:1])[*:2]; DOTA = O=C(O)CN1CCN(CC(=O)O)CCN(CC(=O)*)CCN(CC(=O)O)CC1; Trp(5-Cl) = N[C@@H](Cc1c[nH]c2ccc(Cl)cc12)C(=O)O; Pyridine(2,6-diCH2) = c1cc(C[*:1])nc(C[*:2])c1; Glutaryl = O=C(CCCC(=O)[*:2])[*:1]; X6 = c1cc(CSCCN[*:2])nc(C[*:1])c1; Hyp = O=C(O)[C@@H]1C[C@@H](O)CN1; Suc = O=C(CCC(=O)[*:2])[*:1]; Api = NC1(C(=O)O)CCNCC1; Thp = NC1(C(=O)O)CCOCC1
What was measured:
[1] = target: T1, human GIP receptor (bioGIPR) (Homo sapiens, UniProt P48546); experiment: Surface plasmon resonance (SPR) based binding assay; settings: Single Cycle Kinetic mode, 25° C.; for t1/2 Category: SPR dissociation half-life; for Kd: SPR, 1:1 Langmuir binding model, read-out: pKD Category (converted)
T1 construct: Biotinylate extracellular of the human GIP receptor (bioGIPR, Proteros biostructures GmbH, lot #02/2b); purchased Proteros biostructures GmbH lot #02/2b
T1 sequence (P48546 22-138 limits assumed): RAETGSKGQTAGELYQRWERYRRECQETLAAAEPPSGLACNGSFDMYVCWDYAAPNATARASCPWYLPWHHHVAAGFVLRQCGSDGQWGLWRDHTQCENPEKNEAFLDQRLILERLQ
Method in brief: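 Binding was measured at 25 °C by single-cycle kinetics against a reference flow cell, with blank-run and drift correction, after capturing biotinylated GIPR extracellular domain to ~3500 RU. Running buffer: HBST, 0.1% DMSO. A 1:1 Langmuir model gave kinetic rates, KD, t1/2 and pKD.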

[2] = target: T2, GIPR (CHO-K1-hGIPR cells) (Homo sapiens, UniProt P48546); experiment: FACS binding assay; settings: competition with 20 nM GIP-057, 4° C., 1 hour, read-out: pIC50 Category (converted)
T2 construct: host or cells: CHO-K1
T2 sequence (P48546 22-466): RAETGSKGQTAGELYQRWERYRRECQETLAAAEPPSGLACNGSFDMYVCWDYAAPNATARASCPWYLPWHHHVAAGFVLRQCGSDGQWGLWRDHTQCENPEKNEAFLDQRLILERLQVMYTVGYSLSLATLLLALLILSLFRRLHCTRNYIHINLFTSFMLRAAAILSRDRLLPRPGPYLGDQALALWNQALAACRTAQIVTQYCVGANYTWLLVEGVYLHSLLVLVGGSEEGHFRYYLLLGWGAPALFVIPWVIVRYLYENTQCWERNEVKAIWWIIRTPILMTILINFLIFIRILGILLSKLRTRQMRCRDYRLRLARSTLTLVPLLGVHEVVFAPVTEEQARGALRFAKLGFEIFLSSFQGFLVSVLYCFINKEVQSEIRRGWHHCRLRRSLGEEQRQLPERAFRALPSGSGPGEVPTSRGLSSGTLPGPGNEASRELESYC
Method in brief: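 Peptide binding read by flow cytometry as APC-channel median fluorescence, fitted with a four-parameter logistic to yield EC50 or IC50. Cells were hGIPR-transfected CHO-K1 in PBS with 1% FCS, detected with 1 μg/mL APC-streptavidin, 30 min on ice.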

Row | t1/2 Category [1] | Kd [1] [nM] | IC50 [2] [nM] | SMILES
1 | A (t1/2 values>15 min) | < 1 | < 10 | CC[C@H](C)[C@@H]1NC(=O)[C@H](CC(C)C)NC(=O)C2(CCOCC2)NC(=O)[C@@H](NC(=O)[C@@H](CC(C)C)NC(=O)[C@H](CCC(=O)O)NC(=O)[C@@H]2C[C@@H](O)CN2C(=O)[C@H](Cc2c[nH]c3ccc(Cl)cc23)NC(=O)[C@H](Cc2c[nH]c3ccccc23)NC(=O)CCC(=O)O)CSCc2cccc(n2)CSC[C@@H](C(=O)NCCCCCNC(=O)CN2CCN(CC(=O)O)CCN(CC(=O)O)CCN(CC(=O)O)CC2)NC1=O [GIP-117, HO-Succinyl-Trp-5Clw-Hyp-Glu-leu-[Cys(2Lut)-Thp-Leu-Ile-Cys]-Ape-DOTA] (Suc-W[Trp(5-Cl)][Hyp]E[dL]C[Thp]LIC-{NH(CH2)5NHDOTA}; linker 6-10 via Pyridine(2,6-diCH2))
2 | A (t1/2 values>15 min) | < 1 | < 10 | CC[C@H](C)[C@@H]1NC(=O)[C@H](CC(C)C)NC(=O)C2(CCOCC2)NC(=O)[C@@H](NC(=O)[C@@H](CC(C)C)NC(=O)[C@H](CCC(=O)O)NC(=O)[C@@H]2C[C@@H](O)CN2C(=O)[C@H](Cc2c[nH]c3ccc(Cl)cc23)NC(=O)[C@H](Cc2c[nH]c3ccccc23)NC(=O)CCC(=O)O)CSCc2cccc(n2)CSC[C@@H](C(=O)N2CCN(C(=O)CN3CCN(CC(=O)O)CCN(CC(=O)O)CCN(CC(=O)O)CC3)CC2)NC1=O [GIP-118, HO-Succinyl-Trp-5Clw-Hyp-Glu-leu-[Cys(2Lut)-Thp-Leu-Ile-Cys]-PP-DOTA] (Suc-W[Trp(5-Cl)][Hyp]E[dL]C[Thp]LIC-X8; linker 6-10 via Pyridine(2,6-diCH2))

The remaining lines, values behind:

Row | SMILES | t1/2 Category [1] | Kd [1] [nM] | IC50 [2] [nM]
3 | CC[C@H](C)[C@@H]1NC(=O)[C@H](CC(C)C)NC(=O)C2(CCNCC2)NC(=O)[C@@H](NC(=O)[C@@H](CC(C)C)NC(=O)[C@H](CCC(=O)O)NC(=O)[C@@H]2C[C@@H](N)CN2C(=O)[C@H](Cc2c[nH]c3ccc(Cl)cc23)NC(=O)[C@H](Cc2c[nH]c3ccccc23)NC(=O)[C@H](CC(=O)O)NC(=O)CCC(=O)NCCCOCCOCCOCCCNC(=O)CN2CCN(CC(=O)O)CCN(CC(=O)O)CCN(CC(=O)O)CC2)CNCc2cccc(n2)CSCCNC1=O [GIP-113, DOTA-Ttds-Asp-Trp-5Clw-Tap-Glu-leu-[Dap(2Lut)-Apc-Leu-Ile-AET]] | A (t1/2 values>15 min) | < 1 | < 10
4 | CC[C@H](C)[C@@H]1NC(=O)[C@H](CC(C)C)NC(=O)C2(CCNCC2)NC(=O)[C@@H](NC(=O)[C@@H](CC(C)C)NC(=O)[C@H](CCC(=O)O)NC(=O)[C@@H]2CCCN2C(=O)[C@H](Cc2c[nH]c3ccc(Cl)cc23)NC(=O)[C@H](Cc2c[nH]c3ccccc23)NC(=O)[C@H](CC(=O)O)NC(=O)CCC(=O)NCCCOCCOCCOCCCNC(=O)CN2CCN(CC(=O)O)CCN(CC(=O)O)CCN(CC(=O)O)CC2)CSCc2cccc(n2)CSCCNC1=O [GIP-119, DOTA-Ttds-Asp-Trp-5Clw-Pro-Glu-leu-[Cys(2Lut)-Apc-Leu-Ile-AET]] ({X3-Suc}-DW[Trp(5-Cl)]PE[dL]C[Api]LI; linker 7-C via X6) | A (t1/2 values>15 min) | < 1 | < 10
5 | CC[C@H](C)[C@@H]1NC(=O)[C@H](CC(C)C)NC(=O)C2(CCOCC2)NC(=O)[C@@H](NC(=O)[C@@H](CC(C)C)NC(=O)[C@H](CCC(=O)O)NC(=O)[C@@H]2C[C@@H](NC(=O)CN3CCN(CC(=O)O)CCN(CC(=O)O)CCN(CC(=O)O)CC3)CN2C(=O)[C@H](Cc2c[nH]c3ccc(Cl)cc23)NC(=O)[C@H](Cc2c[nH]c3ccccc23)NC(=O)[C@H](CC(=O)O)NC(C)=O)CSCc2cccc(n2)CSC[C@@H](C(N)=O)NC1=O [GIP-121, Ac-Asp-Trp-5Clw-Tap(DOTA)-Glu-leu-[Cys(2Lut)-Thp-Leu-Ile-Cys]-NH2] (Ac-DW[Trp(5-Cl)][Pro(trans-4-NH2)](DOTA)E[dL]C[Thp]LIC-NH2; linker 7-11 via Pyridine(2,6-diCH2)) | A (t1/2 values>15 min) | < 1 | < 10
6 | CC[C@H](C)[C@@H]1NC(=O)[C@H](CC(C)C)NC(=O)C2(CCN(C(=O)CN3CCN4CCN5CCN(CC3)CC(=O)[O][In]([O]C(=O)C5)[O]C(=O)C4)CC2)NC(=O)[C@@H](NC(=O)[C@@H](CC(C)C)NC(=O)[C@H](CCC(=O)O)NC(=O)[C@@H]2C[C@@H](O)CN2C(=O)[C@H](Cc2c[nH]c3ccc(Cl)cc23)NC(=O)[C@H](Cc2c[nH]c3ccccc23)NC(=O)[C@H](CC(=O)O)NC(=O)CCCC(=O)NC[C@H](O)[C@@H](O)[C@H](O)[C@H](O)CO)CSCc2cccc(n2)CSCCNC1=O [GIP-146, AGLU-Glutar-Asp-Trp-5Clw-Hyp-Glu-leu-[Cys(2Lut)-Apc(InDOTA)-Leu-Ile-AET]] ({NH(1-deoxy-D-glucityl)-Glutaryl}-DW[Trp(5-Cl)][Hyp]E[dL]C[Api](DOTA(In))LI; linker 7-C via X6) |  | < 1 | < 10

Source: patent US20250296971A1, “GASTRIC INHIBITORY PEPTIDE RECEPTOR LIGANDS” (priority 2021, published 2025)
